# Assay results reported in article PMC6895180 (Nature Communications, 2019).
# Several values for one entry are separate records, joined by “and”; a condition that tells them apart may be missing. Equal entries are not always repeated. Where two headings read alike, the source gives them in different places. Marks after values point to notes of the source that are not given here.
# Tests used:
# [1] = tested on: TbAT1-KO: T. brucei cell line lacking the TbAT1(P2) transporter gene; test: microbe, parasite or virus in culture; assay type: cell-based, Trypanosoma brucei brucei; conditions: for EC50: Trypanosoma brucei
# Method: (§1) Drug susceptibility tests with Lister 427WT, TbAT1-KO[48], B48[26] and ISMR1[27] were performed using an assay based on the viability indicator dye resazurin in 96-well plates, each well containing 2 × 10^4 cells. The plates were incubated for 48 h with a doubling dilution series of the test compounds in HMI-9/fetal bovine serum at 37 °C/5% CO2 (23 dilutions starting at 100 µM, except for the pentamidine control (50 µM)), after which resazurin (20 µL of 125 µg mL^−1 resazurin sodium salt solution was added to each well (containing 200 µL of cells and test compound)) was added to each well and the plates incubated for another 24 h. Fluorescence was determined using a FLUOstar Optima (BMG Labtech, Durham, NC) and the results fitted to a sigmoid curve with variable slope using Prism 5.0 or Prism 7.04 (GraphPad, San Diego, CA).
# [2] = tested on: ISMR1: isometamidium-resistant T. brucei cell line; test: microbe, parasite or virus in culture; assay type: cell-based, Trypanosoma brucei brucei; conditions: for EC50: Trypanosoma brucei
# Method: as §1
# [3] = tested on: T. b. brucei Lister 427WT; test: Drug susceptibility test (resazurin), Lister 427WT; assay type: cell-based, Trypanosoma brucei brucei; conditions: Trypanosoma brucei
# Method: as §1
# [4] = tested on: B48: pentamidine, diminazene and melaminophenyl arsenical resistant T. brucei line; test: microbe, parasite or virus in culture; assay type: cell-based, Trypanosoma brucei brucei; conditions: for EC50: Trypanosoma brucei
# [5] = tested on: Lister 427WT T. b. brucei; test: Adenosine deaminase susceptibility (drug sensitivity with/without 2 µM deoxycoformycin); assay type: cell-based, Trypanosoma brucei brucei
# Method: as §1, with “CA). […]” for “CA).”
# Adenosine deaminase susceptibility
# in the presence or absence of 2 µM 2’-deoxycoformycin. […]
# [6] = Metabolic stability, rat liver microsomes (phase I and II)
# Method: (§2) Mouse, rat, and pooled human liver microsomes were purchased from a commercial source (Corning) and stored at -80 °C. NADPH generating system solutions A and B and UGT reaction mix solutions A and B (Corning) were kept at -20°C. The test compound and the reference compounds diclofenac (MW […]
# (§3) microsomal stability assay was carried out based on the BD Biosciences Guidelines for Use (TF000017 Rev1.0) with minor adaptations. Metabolic stability of the compounds was studied through the CYP450 superfamily (phase I metabolism) by fortification with reduced nicotinamide adenine dinucleotide phosphate (NADPH) and through uridine glucuronosyl-transferase (UGT) enzymes (phase II metabolism) by fortification with uridine diphosphate glucuronic acid (UDPGA). For the CYP450 and other NADPH dependent enzymes, both compounds were incubated at 5 µM together with 0.5 mg mL-1 liver microsomes in potassium phosphate buffer in a reaction started by the addition of 1 mM NADPH […]
# (§4) At these time points, 20 µL was withdrawn from the reaction mixture and 80 µL cold acetonitrile (ACN) containing the internal standard tolbutamide, was added to inactivate the enzymes and precipitate the proteins. The mixture was vortexed for 30 s and centrifuged at 4 °C for 5 min at 15,000 rpm. The supernatant was stored at -80°C until analysis. For the UGT enzymes, both compounds were incubated at 5 µM together with 0.5 mg mL-1 liver microsomes in a reaction started by the addition of 2 mM UDPGA cofactor. The corresponding loss of parent compound was determined using liquid chromatography (UPLC) (Waters AquityTM) coupled with tandem quadrupole mass spectrometry (MS²) (Waters XevoTM), equipped with an electrospray ionization (ESI) interface and operated in multiple reaction monitoring (MRM) mode. […]
# [7] = Metabolic stability, mouse liver microsomes (phase I and II)
# Method: as §2, §3, §4
# [8] = Metabolic stability, pooled human liver microsomes (phase I and II)
# Method: as §2, §3, §4
# [9] = read-out: TbAT1-KO EC50, AVG, source data
# [10] = source data, read-out: ISMR1 EC50, AVG
# [11] = source data, read-out: s427 EC50, AVG
# [12] = source data, read-out: B48 EC50, AVG
# [13] = DCF +, single replicate, read-out: EC50
# [14] = DCF -, single replicate, read-out: EC50
# [15] = resistance factor vs Lister 427WT
structure (smiles),measurement,setting,value
Nc1ncnc2c1c(-c1ccccn1)cn2[C@@H]1O[C@H](CO)[C@@H](O)[C@H]1O [Compound 7],EC50,[1]; [9],0.404 µM
same,EC50,[2]; [10],0.433 µM
same,EC50,[3]; [11],0.17 µM
same,EC50,[4]; [12],0.265 µM
Nc1ncnc2c1ncn2[C@@H]1O[C@H](CO)C[C@H]1O [Cordycepin (3)],EC50,[5]; [13],0.00551 µM and 0.00122 µM and 0.00417 µM
same,EC50,[5]; [14],0.169 µM and 0.509 µM and 0.634 µM
same,EC50,"[5]; Trypanosoma brucei, DCF +, average of replicates, read-out: EC50 AVG",0.00363 µM
same,EC50,"[5]; Trypanosoma brucei, DCF +, read-out: EC50 Reported value",0.0036 ± 0.001 µM
same,EC50,"[5]; Trypanosoma brucei, DCF -, average of replicates, read-out: EC50 AVG",0.437 µM
same,EC50,"[5]; Trypanosoma brucei, DCF -, read-out: EC50 Reported value",0.44 ± 0.11 µM
"O=C(O)Cc1ccccc1Nc1c(Cl)cccc1Cl [Diclo, diclofenac, reference compound]",% parent compound remaining,"[6]; CYP - NADPH, 15 min",59±9%
same,% parent compound remaining,"[6]; CYP - NADPH, 30 min",39±2.6%
same,% parent compound remaining,"[6]; CYP - NADPH, 60 min",10±2.9%
same,% parent compound remaining,"[6]; UGT Enzymes, 15 min",28±4.5%
same,% parent compound remaining,"[6]; UGT Enzymes, 30 min",14±1.5%
same,% parent compound remaining,"[6]; UGT Enzymes, 60 min",11±0.9%
same,% parent compound remaining,"[7]; CYP - NADPH, 15 min",83±14%
same,% parent compound remaining,"[7]; CYP - NADPH, 30 min",67±5.7%
same,% parent compound remaining,"[7]; CYP - NADPH, 60 min",52±0.3%
same,% parent compound remaining,"[7]; UGT Enzymes, 15 min",42±21%
same,% parent compound remaining,"[7]; UGT Enzymes, 30 min",46±10%
same,% parent compound remaining,"[7]; UGT Enzymes, 60 min",34±9%
same,% parent compound remaining,"[8]; CYP - NADPH, 15 min",35±0.4%
same,% parent compound remaining,"[8]; CYP - NADPH, 30 min",14±0.8%
same,% parent compound remaining,"[8]; CYP - NADPH, 60 min",2±0.4%
same,% parent compound remaining,"[8]; UGT Enzymes, 15 min",17±1.1%
same,% parent compound remaining,"[8]; UGT Enzymes, 30 min",14±0.7%
same,% parent compound remaining,"[8]; UGT Enzymes, 60 min",10±0.1%
"N=C(N)c1ccc(/N=N/Nc2ccc(C(=N)N)cc2)cc1 [Diminazene, reference compound]",EC50,[1]; [9],4.47 µM
same,EC50,"[1]; read-out: TbAT1-KO EC50, mean and SEM, n = 3",4.5 ± 0.9 µM
same,RF (TbAT1-KO),[1]; resistance factor: ratio of EC50 of resistant and Lister 427WT,10.6***
same,EC50,"[2]; mean and SEM, n = 3, read-out: ISMR1 EC50",2.9 ± 0.4 µM
same,EC50,[2]; [10],2.92 µM
same,RF (ISMR1),[2]; [15],6.9***
same,EC50,"[3]; mean and SEM, n = 3, read-out: Lister 427 EC50",0.42 ± 0.064 µM
same,EC50,[3]; [11],0.423 µM
same,EC50,"[4]; mean and SEM, n = 3, read-out: B48 EC50",7.2 ± 1.6 µM
same,EC50,[4]; [12],7.15 µM
same,RF (B48),[4]; [15],16.9***
Nc1ncnc2c1c(Br)cn2[C@@H]1O[C@H](CO)C[C@H]1O [FH7429-up (10)],EC50,"[5]; DCF +, average of replicates, read-out: EC50 AVG",0.0019 µM
same,EC50,"[5]; DCF +, read-out: EC50 Reported value",0.0019 ± 0.0002 µM
same,EC50,[5]; [13],0.00201 µM and 0.00218 µM and 0.00152 µM
same,EC50,"[5]; DCF -, average of replicates, read-out: EC50 AVG",0.00202 µM
same,EC50,"[5]; DCF -, read-out: EC50 Reported value",0.002 ± 0.0001 µM
same,EC50,[5]; [14],0.0019 µM and 0.00186 µM and 0.0023 µM
